From patent publication EP0333517A2, “Method and agent for inhibiting the binding of human polymorphonuclear leukocytes to endothelium and compositions therefor” (THE ROCKEFELLER UNIVERSITY, priority 1988, dated 1989)
Residues, ends and D or L forms follow the SMILES beside them.

Tests used:
[1] = tested on: binding of PMN to fibrinogen; test: Binding of phorbol dibutyrate-stimulated PMN to fibrinogen-coated surfaces (adherent cells counted by phase contrast microscopy); type: cell-based, human; conditions: 2 mg/ml of synthetic peptide; PMN stimulated with 300 ng/ml phorbol dibutyrate; 20 min at 0°C then 30 min at 37°C; Figure 1
Method: This example illustrates that the method of the invention can be used to inhibit binding of stimulated PMN to fibrinogen-coated surfaces. Figure 1 illustrates the level of inhibition of binding by incubation with monoclonal antibodies against CD11b/CD18 and with the peptide L10, and Figure 2 illustrates the dose dependence of this inhibition.
Details of the experiments are as follows. Purified human PMN were stimulated for 15 min. with 300 ng/ml of phorbol dibutyrate. This stimulation is necessary to enable PMN to bind, and mimics the stimulation of PMN at sites of inflammation. Culture wells were coated with fibrinogen or human serum albumin by incubating 1 mg/ml of these proteins with the culture surfaces for 1 hr. at 20°C. The PMN were then washed and added to culture wells coated with fibrinogen in the presence of 10µg/ml of various monoclonal antibodies or 2 mg/ml of synthetic peptides. PMN were allowed to settle onto the surface for 20 min. at 0°C, then were warmed to 37°C for 30 min. The surfaces were then washed and the number of cells adherent were counted by phase contrast microscopy.

[2] = tested on: binding of PMN to endothelial cells; test: Binding of phorbol dibutyrate-stimulated PMN to endothelial cells (binding assessed by microscopy); type: cell-based; conditions: indicated doses (Figures 3 and 4, not given); human umbilical cord endothelial cells; 37°C for 15 min
Method: This example illustrates that the method of the invention can be used to inhibit the binding of stimulated PMN to human endothelial cells.
The experiments are conducted as follows. Purified human PMN were stimulated for 15 min. with 300 ng/ml of phorbol dibutyrate. This stimulation is necessary to enable PMN to bind, and mimics the stimulation of PMN at sites of inflammation. Endothelial cells were isolated from human umbilical cords by standard methods [Pawlowski et al., Proc. Natl. Aca. Sci., 82, 8202 (1985)] and were cultivated on fibronectin-coated tissue culture surfaces to confluence. […] PMN were washed and combined with the indicated doses of Arg-Leu-Leu-Pro-Gly-Gly-Leu-Gln-Gln-Gly-Arg-Gly- Asp-Ala-Val-Gly-Pro-Glu-Arg-Gly-Cys (Pep63) in Figure 3, or with the indicated doses of Gly-Gln-Gln-His-His-Leu-Gly-Gly-Ala-Lys-Gln-Ala-Gly-Asp-Val (G15) in Figure 4. The cells were then added to the endothelium and incubated at 37°C for 15 min. Unattached PMN were then washed away and the binding was assessed by microscopy.

| Compound | binding of PMN to fibrinogen [1] | inhibition of the binding of PMN to endothelial cells [2] |
| --- | --- | --- |
| CC(C)C[C@H](N)C(=O)NCC(=O)NCC(=O)N[C@@H](C)C(=O)N[C@@H](CCCCN)C(=O)N[C@@H](CCC(N)=O)C(=O)N[C@@H](C)C(=O)NCC(=O)N[C@@H](CC(=O)O)C(=O)N[C@H](C(=O)O)C(C)C [L10, Leu-Gly-Gly-Ala-Lys-Gln-Ala-Gly-Asp-Val] (H-LGGAKQAGDV-OH) | strongly inhibits binding | – |
| CC(C)C[C@H](NC(=O)CNC(=O)CNC(=O)[C@@H]1CCCN1C(=O)[C@H](CC(C)C)NC(=O)[C@H](CC(C)C)NC(=O)[C@@H](N)CCCNC(=N)N)C(=O)N[C@@H](CCC(N)=O)C(=O)N[C@@H](CCC(N)=O)C(=O)NCC(=O)N[C@@H](CCCNC(=N)N)C(=O)NCC(=O)N[C@@H](CC(=O)O)C(=O)N[C@@H](C)C(=O)N[C@H](C(=O)NCC(=O)N1CCC[C@H]1C(=O)N[C@@H](CCC(=O)O)C(=O)N[C@@H](CCCNC(=N)N)C(=O)NCC(=O)N[C@@H](CS)C(=O)O)C(C)C [Pep63] (H-RLLPGGLQQGRGDAVGPERGC-OH) | – | dose dependence of inhibition |
| CC(C)C[C@H](NC(=O)[C@H](Cc1c[nH]cn1)NC(=O)[C@H](Cc1c[nH]cn1)NC(=O)[C@H](CCC(N)=O)NC(=O)[C@H](CCC(N)=O)NC(=O)CN)C(=O)NCC(=O)NCC(=O)N[C@@H](C)C(=O)N[C@@H](CCCCN)C(=O)N[C@@H](CCC(N)=O)C(=O)N[C@@H](C)C(=O)NCC(=O)N[C@@H](CC(=O)O)C(=O)N[C@H](C(=O)O)C(C)C [G15, Gly-Gln-Gln-His-His-Leu-Gly-Gly-Ala-Lys-Gln-Ala-Gly-Asp-Val] (H-GQQHHLGGAKQAGDV-OH) | – | dose dependence of inhibition |
